According to patent publication US8951976B2, “Progression inhibitor for disease attributed to abnormal accumulation of liver fat” (Kissei Pharmaceutical Co., Ltd., priority 2004, dated 2015):

Legend:
SGLT2 = target: T1, SGLT2 (Mus musculus, UniProt Q923I7); assay: Test to confirm inhibitory effect on accumulation of liver lipids in KKAy mice bearing fatty liver; format: in vivo, KKA^y mice
T1 construct: Using KKA^y mice (KKAy/Ta Jcl, CLEA Japan, Inc.) as experimental animals; tissue CLEA Japan, Inc. KKAy/Ta Jcl; host or cells: living KKAy mice (whole animal; SGLT2 acts in kidney)
T1 sequence (Q923I7 1-670): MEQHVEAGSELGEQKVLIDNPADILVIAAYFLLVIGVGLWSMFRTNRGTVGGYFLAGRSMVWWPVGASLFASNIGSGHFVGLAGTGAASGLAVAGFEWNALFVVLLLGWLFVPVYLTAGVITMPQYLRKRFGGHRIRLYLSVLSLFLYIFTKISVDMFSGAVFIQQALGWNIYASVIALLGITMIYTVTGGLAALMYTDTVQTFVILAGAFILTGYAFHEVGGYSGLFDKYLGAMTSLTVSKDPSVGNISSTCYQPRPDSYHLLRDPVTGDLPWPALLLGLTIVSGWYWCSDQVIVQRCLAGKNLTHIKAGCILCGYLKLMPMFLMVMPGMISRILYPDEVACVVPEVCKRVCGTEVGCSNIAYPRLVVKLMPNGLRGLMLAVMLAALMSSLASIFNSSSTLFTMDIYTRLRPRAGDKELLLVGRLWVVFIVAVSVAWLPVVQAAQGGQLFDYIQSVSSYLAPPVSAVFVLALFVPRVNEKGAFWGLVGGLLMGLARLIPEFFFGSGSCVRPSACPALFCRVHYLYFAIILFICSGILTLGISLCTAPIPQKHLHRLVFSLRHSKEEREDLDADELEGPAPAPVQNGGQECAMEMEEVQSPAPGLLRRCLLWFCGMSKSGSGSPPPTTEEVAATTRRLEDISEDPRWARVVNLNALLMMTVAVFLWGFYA
Experimental: Using KKA^y mice (KKAy/Ta Jcl, CLEA Japan, Inc.) as experimental animals, inhibitory effects on accumulation of lipids in liver based on SGLT2 inhibitory effects were evaluated. KKA^y mice bearing fatty liver were prepared as follows.
Female 10-week-old KKA^y mice were bred preparatorily for 4 weeks. During preparatory breeding until 4 days before grouping, the mice were fed on a pellet CE-2 diet for laboratory animal (CLEA Japan, Inc.) under free feeding. From 4 days before grouping, the food was changed to a powdered CE-2 diet for laboratory animal (CLEA Japan, Inc.). At the age of 14 weeks, body weight, blood glucose level and plasma alanine aminotransferase level (ALT) were measured for grouping. The mice were grouped (5 animals in each group) so that in any of these three laboratory values no significant difference was observed between the two groups. In the second group, the mice were fed on a powdered CE-2 diet for laboratory animal (CLEA Japan, Inc.) containing 1000 ppm of 2-(4-methoxybenzyl)phenyl 6-O-ethoxycarbonyl-β-D-glucopyranoside (hereinafter referred to as Compound A) as a SGLT2 inhibitor for 11 days, and then triglyceride contents in liver were measured.
Method of measurement of liver triglyceride content was described as follows. • 1) Ice-cold saline (Otsuka Pharmaceutical Co., Ltd.) was added to liver in the proportion of 4 mL of ice-cold saline to 1 g of the liver, and then a homogenized suspension was prepared in a pestle homogenizer. • 2) To 100 μL of the suspension 1), 800 μL of Folch reagent (chloroform:methanol=2:1) was added and mixed vigorously, and total lipids was extracted. • 3) The mixture 2) was centrifuged (3000 rpm, for 10 min, at room temperature) using a cooled centrifuge (KUBOTA8900, KUBOTA Corporation). • 4) The lower layer after centrifugation in 3) was collected and transferred to another container, and that is referred to as Solution (A). • 5) To the upper layer after centrifugation in 3), 150 μL of Folch reagent was added and mixed vigorously, and centrifugation by the operation identical to that in 3) was performed. […]

[1] = cited from earlier work

SMILES: CCOC(=O)OC[C@H]1O[C@@H](Oc2ccccc2Cc2ccc(OC)cc2)[C@H](O)[C@@H](O)[C@@H]1O [Compound A, 2-(4-methoxybenzyl)phenyl 6-O-ethoxycarbonyl-β-D-glucopyranoside]
- lipid accumulation in liver (SGLT2; administration to KKA^y mice bearing fatty liver, compared to drug-untreated mice): significantly suppressed
- Liver triglyceride content (SGLT2; female KKA^y mice bearing fatty liver, diet containing 1000 ppm for 11 days, mean ± standard error of the mean, * significant (5% or less) vs drug-untreated group): 25.4 ± 3.6* mg/g liver
- increase of lipid accumulative amount in liver (SGLT2; orally administered to rat (so in the source), in comparison with no administration): inhibited significantly

SMILES: CCCCNC(=O)NS(=O)(=O)c1ccc(C)cc1 [tolbutamide]
- suppressive effects on lipid accumulation in liver ([1]; non-Patent Reference 7): does not exhibit suppressive effects

SMILES: CCOC(=O)C(C)(C)Oc1ccc(Cl)cc1 [clofibrate]
- lipid accumulation in liver as a side effect ([1]; Patent Reference 22, while it lowers neutral fat or cholesterol in blood): causes lipid accumulation in liver
